Measurements published in ChEMBL document CHEMBL1201862, “PubChem BioAssay data set” (2004).
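Each compound was tested at five concentrations against cells in 96-well plates for 48 hours. GI50 = concentration required for 50% inhibition of growth.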 Activity calls are given as the source filed them. Rule as the data show it: active = GI50 up to about 1.1 µM and inactive = higher.

Experiments:
Test in all cases: growth of human tumour cells (NCI), 48 h
[1] = test system: DLD-1
[2] = test system: HCC 2998
[3] = test system: HCT-116
[4] = test system: LOX IMVI
[5] = test system: NCI-H23
[6] = test system: NCI-H460
[7] = test system: NCI-H522
[8] = test system: OVCAR-3
[9] = test system: OVCAR-5
[10] = test system: OVCAR-8
[11] = test system: RPMI-8226
[12] = test system: SF-295
[13] = test system: SF-539
[14] = test system: SK-MEL-28
[15] = test system: SK-OV-3
[16] = test system: SN12C
[17] = test system: SNB-75
[18] = test system: SW-620
[19] = test system: UACC-257
[20] = test system: UO-31

## O=NN(CCCl)C(=O)NC1CCSc2ccccc21 (stereo not given)
[1]
  GI50: > 100 µM (inactive)
[2]
  GI50: > 100 µM (inactive)
[3]
  GI50: > 100 µM (inactive)
[4]
  GI50: 82 µM (inactive)
[5]
  GI50: > 100 µM (inactive)
[6]
  GI50: > 69.3 µM (inactive)
[7]
  GI50: > 100 µM (inactive)
[8]
  GI50: > 100 µM (inactive)
[9]
  GI50: > 100 µM (inactive)
[10]
  GI50: > 100 µM (inactive)
[11]
  GI50: > 61.4 µM (inactive)
[12]
  GI50: 57.8 µM (inactive)
[13]
  GI50: 27.4 µM (inactive)
[14]
  GI50: > 58.2 µM (inactive)
[15]
  GI50: > 100 µM (inactive)
[16]
  GI50: > 100 µM (inactive)
[17]
  GI50: 87.3 µM (inactive)
[18]
  GI50: > 100 µM (inactive)
[19]
  GI50: > 100 µM (inactive)
[20]
  GI50: > 91.2 µM (inactive)

## Cc1c2ccnc(-c3ccccc3)c2cc2c1[nH]c1ccccc12
[1]
  GI50: 2.99 µM (inactive)
[2]
  GI50: 3.07 µM (inactive)
[3]
  GI50: 2.12 µM (inactive)
[4]
  GI50: 1.05 µM (active)
[5]
  GI50: 1.01 µM (active)
[6]
  GI50: 1.06 µM (active)
[7]
  GI50: 4.52 µM (inactive)
[8]
  GI50: 3.4 µM (inactive)
[9]
  GI50: 3.77 µM (inactive)
[10]
  GI50: 1.13 µM (inactive)
[11]
  GI50: 2.77 µM (inactive)
[12]
  GI50: 0.879 µM (active)
[13]
  GI50: 2.45 µM (inactive)
[14]
  GI50: 4.29 µM (inactive)
[15]
  GI50: 2.9 µM (inactive)
[16]
  GI50: 2.99 µM (inactive)
[17]
  GI50: 2.33 µM (inactive)
[18]
  GI50: 2.48 µM (inactive)
[19]
  GI50: 2.7 µM (inactive)
[20]
  GI50: 1.33 µM (inactive)

## [N-]=[N+]=CC(=O)OCC(N)C(=O)O (stereo not given)
[1]
  GI50: 0.344 µM (active)
[2]
  GI50: 0.362 µM (active)
[3]
  GI50: 0.403 µM (active)
[4]
  GI50: 0.205 µM (active)
[5]
  GI50: 1.04 µM (active)
[6]
  GI50: 0.411 µM (active)
[7]
  GI50: 0.54 µM (active)
[8]
  GI50: 0.841 µM (active)
[9]
  GI50: 14.6 µM (inactive)
[10]
  GI50: 1.32 µM (inactive)
[11]
  GI50: 0.528 µM (active)
[12]
  GI50: 0.923 µM (active)
[13]
  GI50: 0.13 µM (active)
[14]
  GI50: 3.35 µM (inactive)
[15]
  GI50: 2.42 µM (inactive)
[16]
  GI50: 0.421 µM (active)
[17]
  GI50: 21.3 µM (inactive)
[18]
  GI50: 0.437 µM (active)
[19]
  GI50: 95.9 µM (inactive)
[20]
  GI50: 2.61 µM (inactive)

## [N-]=[N+]=CC(=O)c1ccccc1C#CCCc1ccccc1
[1]
  GI50: 39.4 µM (inactive)
[2]
  GI50: 31.8 µM (inactive)
[3]
  GI50: 16.6 µM (inactive)
[4]
  GI50: 30.1 µM (inactive)
[5]
  GI50: 21.5 µM (inactive)
[6]
  GI50: 23.2 µM (inactive)
[7]
  GI50: 1.05 µM (active)
[8]
  GI50: 20.2 µM (inactive)
[9]
  GI50: 50.5 µM (inactive)
[10]
  GI50: 27.8 µM (inactive)
[11]
  GI50: 14 µM (inactive)
[12]
  GI50: 40.4 µM (inactive)
[13]
  GI50: 36.6 µM (inactive)
[14]
  GI50: 48.2 µM (inactive)
[15]
  GI50: 15.1 µM (inactive)
[16]
  GI50: 35.5 µM (inactive)
[17]
  GI50: 15.6 µM (inactive)
[18]
  GI50: 32.7 µM (inactive)
[19]
  GI50: 23.9 µM (inactive)
[20]
  GI50: 22.7 µM (inactive)

## Nc1ccc2[nH]c3c(-c4ccccc4)nccc3c2c1
[1]
  GI50: 64.7 µM (inactive)
[2]
  GI50: 28.8 µM (inactive)
[3]
  GI50: 34.6 µM (inactive)
[4]
  GI50: 28.9 µM (inactive)
[5]
  GI50: > 73.6 µM (inactive)
[6]
  GI50: 11.3 µM (inactive)
[7]
  GI50: 59.2 µM (inactive)
[8]
  GI50: 56.9 µM (inactive)
[9]
  GI50: > 88.3 µM (inactive)
[10]
  GI50: 72.3 µM (inactive)
[11]
  GI50: 20.3 µM (inactive)
[12]
  GI50: 41.2 µM (inactive)
[13]
  GI50: 71.6 µM (inactive)
[14]
  GI50: > 100 µM (inactive)
[15]
  GI50: 54.2 µM (inactive)
[16]
  GI50: > 87.7 µM (inactive)
[17]
  GI50: 29.6 µM (inactive)
[18]
  GI50: 65.8 µM (inactive)
[19]
  GI50: > 75.3 µM (inactive)
[20]
  GI50: 37.7 µM (inactive)

## CCCCC(C)C1CCC2(C)C=CC(=O)C(C)=C2C1O (stereo not given)
[1]
  GI50: > 100 µM (inactive)
[2]
  GI50: > 100 µM (inactive)
[3]
  GI50: > 100 µM (inactive)
[4]
  GI50: > 100 µM (inactive)
[5]
  GI50: > 100 µM (inactive)
[6]
  GI50: > 100 µM (inactive)
[7]
  GI50: > 100 µM (inactive)
[8]
  GI50: > 100 µM (inactive)
[9]
  GI50: > 100 µM (inactive)
[10]
  GI50: > 100 µM (inactive)
[11]
  GI50: > 100 µM (inactive)
[12]
  GI50: > 100 µM (inactive)
[13]
  GI50: > 100 µM (inactive)
[14]
  GI50: > 100 µM (inactive)
[15]
  GI50: > 100 µM (inactive)
[16]
  GI50: > 100 µM (inactive)
[17]
  GI50: > 100 µM (inactive)
[18]
  GI50: > 100 µM (inactive)
[19]
  GI50: > 100 µM (inactive)
[20]
  GI50: > 100 µM (inactive)

## C=C1C(=O)C[C@@]23CCC[C@@]12CC(O)C3 (stereo not given in full)
[1]
  GI50: 18.6 µM (inactive)
[2]
  GI50: > 46.2 µM (inactive)
[3]
  GI50: 19 µM (inactive)
[4]
  GI50: 14.6 µM (inactive)
[5]
  GI50: 21.8 µM (inactive)
[6]
  GI50: 20.8 µM (inactive)
[7]
  GI50: 2.37 µM (inactive)
[8]
  GI50: 13.1 µM (inactive)
[9]
  GI50: 23.4 µM (inactive)
[10]
  GI50: 32.7 µM (inactive)
[11]
  GI50: 15.6 µM (inactive)
[12]
  GI50: 37.8 µM (inactive)
[13]
  GI50: 25.6 µM (inactive)
[14]
  GI50: 21.5 µM (inactive)
[15]
  GI50: 28.1 µM (inactive)
[16]
  GI50: 16.9 µM (inactive)
[17]
  GI50: 18.4 µM (inactive)
[18]
  GI50: 18.7 µM (inactive)
[19]
  GI50: 18.7 µM (inactive)
[20]
  GI50: 37.6 µM (inactive)
